According to PMC7249060, “The Antiproliferative Effects of Flavonoid MAO Inhibitors on Prostate Cancer Cells” (Molecules, 2020):

What was measured:
hMAO-A = target: T1, hMAO-A (Homo sapiens, UniProt P21397); assay: MAO-Glow luminescence screen of KKRs at 100 μM; format: biochemical; settings: from screen at 100 μM, 37 °C, 60 min, LDS 40 μM
T1 construct: purchased Sigma-Aldrich Co. (St. Louis, MO, USA)
T1 sequence (P21397 1-527): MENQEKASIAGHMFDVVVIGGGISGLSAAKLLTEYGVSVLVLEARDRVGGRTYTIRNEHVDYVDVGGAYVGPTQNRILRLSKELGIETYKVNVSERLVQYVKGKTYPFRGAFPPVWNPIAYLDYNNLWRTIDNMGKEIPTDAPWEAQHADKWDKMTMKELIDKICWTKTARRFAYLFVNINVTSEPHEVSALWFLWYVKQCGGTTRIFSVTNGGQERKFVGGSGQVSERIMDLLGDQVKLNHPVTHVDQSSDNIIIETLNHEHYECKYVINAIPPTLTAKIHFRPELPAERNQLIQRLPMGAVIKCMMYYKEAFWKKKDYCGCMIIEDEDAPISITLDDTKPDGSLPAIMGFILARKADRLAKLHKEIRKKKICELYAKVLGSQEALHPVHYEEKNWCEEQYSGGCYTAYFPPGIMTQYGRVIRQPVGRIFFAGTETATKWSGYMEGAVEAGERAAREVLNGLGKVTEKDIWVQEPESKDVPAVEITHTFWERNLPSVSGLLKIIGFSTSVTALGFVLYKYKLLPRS
Procedure: We optimized our control hMAO-A and hMAO-B isozymes reactions in the incubation condition, at 37 °C for 1 h, by performing a luminescence assay using the MAO-Glow™ kit. Upon arrival, each isozyme was diluted with 10 mM HEPES in cold HBSS of pH 7.4. Afterward, the diluted isozymes were kept at −80 °C until use. Enzyme concentration optimization was accomplished by testing ten 2X serially diluted hMAO-A and hMAO-B concentrations for a final range of 7.00–0.01 U/mL each. The tested isozymes were incubated with LDS of 40 and 4 μM for isozymes A and B, respectively (recommended by Promega protocol), and a maximum of used DMSO of 1% final concentration. Different isozyme concentrations reactions at their initial velocities were monitored. Consequently, their required concentrations were defined to be 0.44 U/mL each. Additionally, ten different LDS concentrations, ranging from 0.3–150 μM, were monitored for optimizing and validating the linearity of the initial reaction for the hMAO-A mode of action. Subsequently, we chose a saturated substrate of 75 μM as a required concentration for the hMAO-A enzyme kinetic reactions.
(§1) The inhibitory effects of the synthesized KKRs of hMAO-A and B were tested by measuring the decrease in arbitrary light units (ALU) signal produced by the optimized isozymes using the MAO-Glow™ Assay at 37 °C. In this assay, DMSO stock for each KKR compound was diluted with a reaction buffer of pH 7.4 to make a 4X working solution for a maximum final concentration of 100 μM and ≤1% DMSO. The experiments were run in the absence and presence of 4X the miscellaneous standards of MAO-BIs (DEP, PARG, and SAF) and MAO-AIs (PIRL and CLORG), with similar concentrations. In white opaque 96-well microplates, 12.5 μL of each compound was plated at RT and was followed by 25 μL of 2X cold hMAO-A or hMAO-B, for a final concentration of 0.44 U/mL. A related buffer substituted each isozyme to make the blank wells and substituted each compound to make the negative control wells. Following this, we added 12.5 μL of 4X LDS to make a final substrate concentration of 40- and 4-μM for hMAO-A and hMAO-B, respectively. All screen plates were incubated at 37 °C for 60 min. The plates of 50 μL/well were then taken out from the incubator, and their reactions were stopped by an equal volume of 50 μL of reporter luciferin detection reagent (RLDR). After 30 min, the luminescence signals for all plates were read on a Synergy HTX Multi-reader from Bio-Tek (Winooski, VT, USA).

hMAO-B = target: T2, hMAO-B (Homo sapiens, UniProt P27338); assay: MAO-Glow inhibitory potency (IC50); format: biochemical; settings: mean ± SEM, at least two experiments; LDS 4 μM
T2 construct: purchased Sigma-Aldrich Co. (St. Louis, MO, USA)
T2 sequence (P27338 1-520): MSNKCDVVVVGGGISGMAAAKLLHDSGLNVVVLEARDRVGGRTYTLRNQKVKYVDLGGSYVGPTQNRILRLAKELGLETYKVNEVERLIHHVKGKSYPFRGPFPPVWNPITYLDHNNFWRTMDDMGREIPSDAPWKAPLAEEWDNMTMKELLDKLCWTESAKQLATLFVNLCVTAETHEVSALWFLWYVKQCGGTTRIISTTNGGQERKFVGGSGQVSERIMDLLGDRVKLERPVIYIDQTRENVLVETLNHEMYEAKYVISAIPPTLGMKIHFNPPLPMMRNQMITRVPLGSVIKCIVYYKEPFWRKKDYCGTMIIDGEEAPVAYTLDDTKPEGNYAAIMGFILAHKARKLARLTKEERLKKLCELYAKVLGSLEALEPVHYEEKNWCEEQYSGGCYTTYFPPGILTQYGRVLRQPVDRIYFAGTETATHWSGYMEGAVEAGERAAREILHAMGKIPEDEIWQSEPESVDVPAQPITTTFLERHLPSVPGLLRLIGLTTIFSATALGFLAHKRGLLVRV
Procedure: as §1
The experiments were performed in the presence and absence of the standard PILR. In white opaque 96-well plates, each KKR compound was serially diluted with a reaction buffer of pH 7.4 at the highest possible maximum final concentration, and the least used DMSO (<2%). In blank wells, the related reaction buffer substituted the isozyme. In negative control wells, the reaction buffer substituted each compound concentration. Then, the procedure was carried out as mentioned above (Section 4.2.2), and the reaction was detected on the Bio-Tek Synergy HTX Multi-Reader. The IC50 of each KKR on both isozymes was determined and subsequently the RSA and RSB was calculated.
Statistical analyses were performed using the GraphPad Prism program (version 6.07 for Windows) from the GraphPad Prism Software Incorporated (San Diego, CA, USA). All data points and parameters were expressed as the mean ± SEM. All parameters were calculated from non-linear and linear regressions with the best R^2 values, no less than 93%. The inhibitory concentration of 50% of isozyme (IC50) of each compound was obtained by the interpolation of a normalized variable slope logarithmic curve. The RSA values of the selected compounds were calculated from their IC50 average means following the equation RSA = hMAO − B IC50/Hmao − A IC50(1)

DU145 cells = assay: Antiproliferation screen assay, resazurin, 72 h; format: cell-based, human; settings: 50 μM
Procedure: (§2) In this screen, we examined the growth inhibitory effects of all synthesized KKRs on the three human PCa cell lines LNCaP, DU145, and PC3. The antiproliferative clinical drug TAX of 0.25 μM was used as a positive control. Additionally, different standards of MAO-Is and FLUT were tested for their effect on the LNCaP cells. Briefly, the procedures and materials used were the same as for the viability assay except for the following—cultured cells were seeded at 10,000 cells/175-µL/well related experimental media, and the resazurin solution was added after 72 h of incubation with the compounds of 50 μM each.

LNCaP cells = assay: Antiproliferation screen assay, resazurin, 72 h; format: cell-based, human; settings: 50 μM
Procedure: as §2

SMILES | IC90 (hMAO-A) | IC50 (hMAO-B) | antiproliferative effect in screen (DU145 cells) | antiproliferative effect in screen (LNCaP cells)
COc1cc(OC)c2c(=O)c(O)c(/C=C/c3cc(OC)c(OC)c(OC)c3)oc2c1 [KKR2A, (E)-3-hydroxy-5,7-dimethoxy-2-(3,4,5-trimethoxystyryl)-4H-chromen-4-one] | < 100 µM | 200 ± 20 nM | no effects on any of the screened PCa cell models | no effects on any of the screened PCa cell models
COc1cc(O)c(C(=O)/C=C/c2ccc(Cl)c(Cl)c2)c(OC)c1 [KKR11, (E)-3-(3,4-dichlorophenyl)-1-(2-hydroxy-4,6-dimethoxyphenyl)prop-2-en-1-one] | < 100 µM | 1120 ± 90 nM | top effective | top five KKRs that kept standing out with antiproliferative effects
O=c1cc(-c2ccccc2)oc2cc(Cl)c(Cl)cc12 [KKR21, 6,7-dichloro-2-phenyl-4H-chromen-4-one] | < 100 µM | > 800000 nM | no effects on any of the screened PCa cell models | no effects on any of the screened PCa cell models

The next lines start with results.

IC90 (hMAO-A) | IC50 (hMAO-B) | SMILES | antiproliferative effect in screen (DU145 cells) | antiproliferative effect in screen (LNCaP cells)
< 100 µM | > 800000 nM | O=c1c(O)c(-c2ccccc2)oc2c(Cl)cc(Cl)cc12 [KKR7, 6,8-dichloro-3-hydroxy-2-phenyl-4H-chromen-4-one] | top effective | 
< 100 µM | 790 ± 60 nM | O=C(/C=C/c1ccccc1)c1cc(Cl)cc(Cl)c1O [KKR20, (E)-1-(3,5-dichloro-2-hydroxyphenyl)-3-phenylprop-2-en-1-one] |  | top five KKRs that kept standing out with antiproliferative effects
